Legend:
Assay type in all cases: cell-based
[1] = target: T1, EGFR T790M/L858R (NCI-H1975 cells) (Homo sapiens, UniProt P00533, L858R/T790M); experiment: EGFR (L858R) degradation analysis, Total EGFR (L858R) HTRF, NCI-H1975 cells; details: 6 hours
T1 construct: NCI-H1975 (harboring EGFR heterozygous T790M/L858R mutations); host or cells: NCI-H1975
Outline: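 Cells (10000/well NCI-H1975 and NCI-H1975+CS, 1000/well NCI-H3255) treated with 11-point half-log titrations from 10 μM top, in duplicate, for 6 hours at 37° C., 5% CO2. Total EGFR (L858R) quantified by HTRF FRET; untreated cells as negative and cell-free wells as positive control.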

[2] = target: T2, EGFR T790M/L858R/C797S (NCI-H1975+CS cells) (Homo sapiens, UniProt P00533, C797S/L858R/T790M); experiment: EGFR (L858R) degradation analysis, Total EGFR (L858R) HTRF, NCI-H1975+CS cells; details: 6 hours, read-out: H1975 C797S clone EGFR DC50
T2 construct: NCI-H1975+CS (harboring EGFR heterozygous T/790M/L858R/C797S mutations) was generated using CRISPR technology; host or cells: NCI-H1975+CS (CRISPR-edited NCI-H1975)
T2 sequence (P00533 25-1210 T790M/C797S/L858R): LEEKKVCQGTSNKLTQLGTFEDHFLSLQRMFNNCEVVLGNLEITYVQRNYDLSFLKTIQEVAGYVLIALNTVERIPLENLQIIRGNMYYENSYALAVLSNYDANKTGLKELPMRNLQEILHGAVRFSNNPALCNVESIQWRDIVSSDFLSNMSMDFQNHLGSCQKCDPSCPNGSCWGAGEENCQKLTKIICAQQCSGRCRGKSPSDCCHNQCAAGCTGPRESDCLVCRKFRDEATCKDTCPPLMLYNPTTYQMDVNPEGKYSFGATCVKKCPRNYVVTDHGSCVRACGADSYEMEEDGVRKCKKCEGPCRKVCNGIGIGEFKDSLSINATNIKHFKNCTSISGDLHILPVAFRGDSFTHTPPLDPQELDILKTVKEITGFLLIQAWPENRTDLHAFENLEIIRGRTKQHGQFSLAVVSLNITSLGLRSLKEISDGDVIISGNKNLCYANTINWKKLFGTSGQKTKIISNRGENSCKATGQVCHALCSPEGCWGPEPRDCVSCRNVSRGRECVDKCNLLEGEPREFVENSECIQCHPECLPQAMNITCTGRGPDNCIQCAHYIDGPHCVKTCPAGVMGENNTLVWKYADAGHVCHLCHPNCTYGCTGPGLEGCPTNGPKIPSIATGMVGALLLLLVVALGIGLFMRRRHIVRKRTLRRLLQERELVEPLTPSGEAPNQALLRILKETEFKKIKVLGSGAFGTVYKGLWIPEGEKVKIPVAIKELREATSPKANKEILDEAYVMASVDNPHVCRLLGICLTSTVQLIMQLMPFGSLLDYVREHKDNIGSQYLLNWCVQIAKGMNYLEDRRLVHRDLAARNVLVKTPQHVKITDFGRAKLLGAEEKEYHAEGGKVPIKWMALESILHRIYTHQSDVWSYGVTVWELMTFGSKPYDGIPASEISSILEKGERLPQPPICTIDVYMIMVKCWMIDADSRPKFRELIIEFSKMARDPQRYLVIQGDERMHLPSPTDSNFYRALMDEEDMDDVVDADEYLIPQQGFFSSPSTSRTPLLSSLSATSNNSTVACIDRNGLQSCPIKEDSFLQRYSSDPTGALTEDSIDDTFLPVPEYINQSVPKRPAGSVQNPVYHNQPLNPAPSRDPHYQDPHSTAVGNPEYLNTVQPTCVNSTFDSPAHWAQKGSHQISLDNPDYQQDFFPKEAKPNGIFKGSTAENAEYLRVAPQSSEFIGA
Source text: (§1) NCI-H1975 (harboring EGFR heterozygous T790M/L858R mutations) and NCI-H3255 (harboring EGFR heterozygous L858R mutation) were purchased from ATCC and NCI, respectively. NCI-H1975+CS (harboring EGFR heterozygous T/790M/L858R/C797S mutations) was generated using CRISPR technology to introduce the additional C797S mutation by Horizon Discovery. RPMI 1640 no-phenol red medium and fetal bovine serum (FBS) were purchased from Gibco (Grand Island, NY, USA). Cell culture flasks and 384-well microplates were acquired from VWR (Radnor, PA, USA). Total EGFR (L858R) HTRF assay kits were purchased from Cisbio (Bedford, MA, USA).
(§2) Degradation of EGFR protein containing L858R mutation was determined based on quantification of FRET signal using Total EGFR (L858R) HTRF assay kit. Test compounds were added to the 384-well plate from a top concentration of 10 μM with 11 points, half log titration in duplicates. NCI-H1975, NCI-H1975+CS or NCI-H3255 cells were added into 384-well plates at a cell density of 10000, 10000 or 1000 cells per well, respectively. The plates were kept at 37° C. with 5% CO2 for 6 hours. Cells treated in the absence of the test compound were the negative control. Positive control was set by wells containing all reagents but no cells. FRET signal was acquired on EnVision™ Multilabel Reader (PerkinElmer, Santa Clara, CA, USA).

[3] = target: T3, EGFR L858R (NCI-H3255 cells) (Homo sapiens, UniProt P00533, L858R); experiment: EGFR (L858R) degradation analysis, Total EGFR (L858R) HTRF, NCI-H3255 cells; details: 6 hours
T3 construct: NCI-H3255 (harboring EGFR heterozygous L858R mutation); host or cells: NCI-H3255
T3 sequence (P00533 25-1210 L858R): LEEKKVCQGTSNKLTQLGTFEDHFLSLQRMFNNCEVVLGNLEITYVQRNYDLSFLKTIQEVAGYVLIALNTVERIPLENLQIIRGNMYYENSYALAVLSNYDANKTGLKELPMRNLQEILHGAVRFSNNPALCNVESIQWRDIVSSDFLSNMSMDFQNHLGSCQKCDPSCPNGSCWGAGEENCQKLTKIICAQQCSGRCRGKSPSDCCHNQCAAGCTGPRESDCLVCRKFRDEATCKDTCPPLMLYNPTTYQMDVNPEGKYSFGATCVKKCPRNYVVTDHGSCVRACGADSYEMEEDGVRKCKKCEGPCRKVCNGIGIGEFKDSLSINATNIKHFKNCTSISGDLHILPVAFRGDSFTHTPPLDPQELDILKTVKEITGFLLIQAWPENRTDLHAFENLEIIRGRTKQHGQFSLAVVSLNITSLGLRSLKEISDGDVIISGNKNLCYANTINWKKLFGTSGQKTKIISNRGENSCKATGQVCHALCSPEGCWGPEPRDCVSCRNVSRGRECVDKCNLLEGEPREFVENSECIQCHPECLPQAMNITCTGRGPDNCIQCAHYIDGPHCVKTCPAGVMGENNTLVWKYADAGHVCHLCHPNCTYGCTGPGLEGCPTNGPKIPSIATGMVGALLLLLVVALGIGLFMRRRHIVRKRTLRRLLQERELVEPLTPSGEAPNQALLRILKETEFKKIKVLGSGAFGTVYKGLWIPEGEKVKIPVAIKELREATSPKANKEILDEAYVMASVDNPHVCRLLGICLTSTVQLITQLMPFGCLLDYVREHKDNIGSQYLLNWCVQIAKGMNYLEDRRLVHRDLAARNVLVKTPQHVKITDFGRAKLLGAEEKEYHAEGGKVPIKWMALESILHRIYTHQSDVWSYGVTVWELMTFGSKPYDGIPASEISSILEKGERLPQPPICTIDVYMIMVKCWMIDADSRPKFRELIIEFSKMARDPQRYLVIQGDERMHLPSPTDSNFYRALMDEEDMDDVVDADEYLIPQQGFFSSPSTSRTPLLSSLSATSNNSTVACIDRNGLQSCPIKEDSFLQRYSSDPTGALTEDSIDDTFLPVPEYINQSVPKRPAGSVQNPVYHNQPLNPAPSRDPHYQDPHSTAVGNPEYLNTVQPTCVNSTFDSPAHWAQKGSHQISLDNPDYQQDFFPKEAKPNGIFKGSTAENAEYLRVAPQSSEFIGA
Source text: as §1, §2

T1 sequence (P00533 25-1210 T790M/L858R): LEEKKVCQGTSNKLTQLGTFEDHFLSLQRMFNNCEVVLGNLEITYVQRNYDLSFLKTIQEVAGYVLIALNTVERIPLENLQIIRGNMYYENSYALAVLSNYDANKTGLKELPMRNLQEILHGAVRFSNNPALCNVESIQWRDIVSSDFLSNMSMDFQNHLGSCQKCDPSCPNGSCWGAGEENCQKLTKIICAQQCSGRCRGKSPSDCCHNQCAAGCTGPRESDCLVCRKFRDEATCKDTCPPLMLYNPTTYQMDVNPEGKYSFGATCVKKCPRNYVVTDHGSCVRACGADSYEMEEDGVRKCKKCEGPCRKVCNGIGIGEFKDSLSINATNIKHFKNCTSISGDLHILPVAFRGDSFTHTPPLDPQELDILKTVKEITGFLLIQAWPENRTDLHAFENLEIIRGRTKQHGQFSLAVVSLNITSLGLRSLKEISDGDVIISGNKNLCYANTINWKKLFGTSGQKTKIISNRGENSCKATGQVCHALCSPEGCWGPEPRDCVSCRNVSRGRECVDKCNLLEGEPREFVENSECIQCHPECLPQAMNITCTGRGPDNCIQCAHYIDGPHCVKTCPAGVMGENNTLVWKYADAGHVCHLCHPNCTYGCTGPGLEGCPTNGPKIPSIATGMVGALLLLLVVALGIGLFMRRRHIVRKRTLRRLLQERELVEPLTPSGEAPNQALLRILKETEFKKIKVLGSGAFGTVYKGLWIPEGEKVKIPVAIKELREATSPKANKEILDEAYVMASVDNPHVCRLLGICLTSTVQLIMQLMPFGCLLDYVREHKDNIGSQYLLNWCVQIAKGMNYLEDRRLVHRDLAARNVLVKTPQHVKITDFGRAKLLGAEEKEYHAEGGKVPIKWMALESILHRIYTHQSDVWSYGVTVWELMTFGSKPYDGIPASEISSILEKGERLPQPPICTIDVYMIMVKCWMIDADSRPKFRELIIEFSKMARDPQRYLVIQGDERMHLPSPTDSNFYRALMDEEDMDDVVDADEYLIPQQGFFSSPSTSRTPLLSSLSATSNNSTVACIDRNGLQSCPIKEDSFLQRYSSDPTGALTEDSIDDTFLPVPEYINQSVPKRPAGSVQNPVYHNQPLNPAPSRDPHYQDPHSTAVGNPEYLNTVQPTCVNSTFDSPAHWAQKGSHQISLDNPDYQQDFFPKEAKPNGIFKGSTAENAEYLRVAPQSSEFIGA

Row | Structure (SMILES) | DC50 [1] [nM] | DC50 [2] [nM] | DC50 [3] [nM]
1 | O=C1CCC(Nc2ccc(C3CCN(CC(=O)N4CCN(c5ccc(-c6cc(F)c7c(c6)C(=O)N(C(C(=O)Nc6nccs6)c6ncn8c6CCC8)C7)cc5)CC4)CC3)cc2)C(=O)N1 (stereo not shown) [Compound 5, 2-(6,7-dihydro-5H-pyrrolo[1,2-c]imidazol-1-yl)-2-[6-[4-[4-[2-[4-[4-[(2,6-dioxo-3-piperidyl)amino]phenyl]-1-piperidyl]acetyl]piperazin-1-yl]phenyl]-4-fluoro-1-oxo-isoindolin-2-yl]-N-thiazol-2-yl-acetamide] | 20 | 17 | 6
2 | O=C1CCC(Nc2ccc(C3CCN(CC(=O)N4CCC(Oc5ccc(-c6cc(F)c7c(c6)C(=O)N(C(C(=O)Nc6nccs6)c6ncn8c6CCC8)C7)cc5)CC4)CC3)cc2F)C(=O)N1 (stereo not shown) [Compound 34, 2-(6,7-dihydro-5H-pyrrolo[1,2-c]imidazol-1-yl)-2-(6-(4-((1-(2-(4-(4-((2,6-dioxopiperidin-3-yl)amino)-3-fluorophenyl)piperidin-1-yl)acetyl)piperidin-4-yl)oxy)phenyl)-4-fluoro-1-oxoisoindolin-2-yl)-N-(thiazol-2-yl)acetamide] | 57 | 22 | 13
3 | O=C1CCC(Nc2ccc(C3CCN(CC(=O)N4CCC(NC(=O)c5ccc(C#Cc6cc(F)c7c(c6)C(=O)N(C(C(=O)Nc6nccs6)c6ncn8c6CCC8)C7)cn5)CC4)CC3)cc2)C(=O)N1 (racemic) [Compound 1, 5-[2-[7-Fluoro-3-oxo-2-[(1RS)-1-(6,7-dihydro-5H-pyrrolo[1,2-c]imidazol-1-yl)-2-oxo-2-(thiazol-2-ylamino)ethyl]isoindolin-5-yl]ethynyl]-N-[1-[2-[4-[4-[[(3RS)-2,6-dioxo-3-piperidyl]amino]phenyl]-1-piperidyl]acetyl]-4-piperidyl]pyridine-2-carboxamide] | 6 | 17 | 8
4 | O=C1CCC(Nc2ccc(C3CCN(CC(=O)N4CCC(Oc5ccc(-c6cc(F)c7c(c6)C(=O)N(C(C(=O)Nc6nccs6)c6ncn8c6CCC8)C7)cc5)CC4)CC3)c(F)c2)C(=O)N1 (stereo not shown) [Compound 35, 2-(6,7-dihydro-5H-pyrrolo[1,2-c]imidazol-1-yl)-2-(6-(4-((1-(2-(4-(4-((2,6-dioxopiperidin-3-yl)amino)-2-fluorophenyl)piperidin-1-yl)acetyl)piperidin-4-yl)oxy)phenyl)-4-fluoro-1-oxoisoindolin-2-yl)-N-(thiazol-2-yl)acetamide] | 46 | 12 | 9
5 | O=C1CC[C@H](Nc2ccc(C3CCN(CC(=O)N4CCN(Cc5ccc(-c6cc(F)c7c(c6)C(=O)N(C(C(=O)Nc6nccs6)c6ncn8c6CCC8)C7)cc5)CC4)CC3)c(F)c2)C(=O)N1 (stereo partly drawn) [Compound 58, 2-(6,7-dihydro-5H-pyrrolo[1,2-c]imidazol-1-yl)-2-[6-[4-[[4-[2-[4-[4-[[(3S)-2,6-dioxo-3-piperidyl]amino]-2-fluoro-phenyl]-1-piperidyl]acetyl]piperazin-1-yl]methyl]phenyl]-4-fluoro-1-oxo-isoindolin-2-yl]-N-thiazol-2-yl-acetamide] | 26 | 14 | 26
6 | O=C1CCC(Nc2ccc(C3CCN(CC(=O)N4CCN(Cc5ccc(-c6cc(F)c7c(c6)C(=O)N(C(C(=O)Nc6nccs6)c6ncn8c6CCC8)C7)cc5)CC4)CC3)c(F)c2)C(=O)N1 (stereo not shown) [Compound 57, 2-(6,7-dihydro-5H-pyrrolo[1,2-c]imidazol-1-yl)-2-[6-[4-[[4-[2-[4-[4-[(2,6-dioxo-3-piperidyl)amino]-2-fluoro-phenyl]-1-piperidyl]acetyl]piperazin-1-yl]methyl]phenyl]-4-fluoro-1-oxo-isoindolin-2-yl]-N-thiazol-2-yl-acetamide] | 46 | 7 | 11
7 | O=C1CCC(Nc2ccc(C3CCN(CC(=O)N4CCN(c5ccc(-c6cc(F)c7c(c6)C(=O)N(C(C(=O)Nc6ccccn6)c6ncn8c6CCC8)C7)cc5)CC4)CC3)cc2)C(=O)N1 (stereo not shown) [Compound 19, 2-(6,7-dihydro-5H-pyrrolo[1,2-c]imidazol-1-yl)-2-(6-(4-(4-(2-(4-(4-((2,6-dioxopiperidin-3-yl)amino)phenyl)piperidin-1-yl)acetyl)piperazin-1-yl)phenyl)-4-fluoro-1-oxoisoindolin-2-yl)-N-(pyridin-2-yl)acetamide] | 50 | 20 | 13
8 | Cn1nc(N2CCC(=O)NC2=O)c2ccc(C3CCN(CC(=O)N4CC5(C4)CN(c4ccc(-c6cc(F)c7c(c6)C(=O)N(C(C(=O)Nc6nccs6)c6ncn8c6CCC8)C7)cc4)C5)CC3)cc21 (stereo not shown) [Compound 49, 2-(6,7-dihydro-5H-pyrrolo[1,2-c]imidazol-1-yl)-2-[6-[4-[2-[2-[4-[3-(2,4-dioxohexahydropyrimidin-1-yl)-1-methyl-indazol-6-yl]-1-piperidyl]acetyl]-2,6-diazaspiro[3.3]heptan-6-yl]phenyl]-4-fluoro-1-oxo-isoindolin-2-yl]-N-thiazol-2-yl-acetamide] | 18 | – | 10
9 | O=C1CC[C@H](Nc2ccc(C3CCN(CC(=O)N4CCC(c5ccc(-c6cc(F)c7c(c6)C(=O)N(C(C(=O)Nc6nccs6)c6ncn8c6CCC8)C7)cc5)CC4)CC3)cc2)C(=O)N1 (stereo partly drawn) [Compound 22, 2-(6,7-dihydro-5H-pyrrolo[1,2-c]imidazol-1-yl)-2-(6-(4-(1-(2-(4-(4-(((S)-2,6-dioxopiperidin-3-yl)amino)phenyl)piperidin-1-yl)acetyl)piperidin-4-yl)phenyl)-4-fluoro-1-oxoisoindolin-2-yl)-N-(thiazol-2-yl)acetamide] | 31 | – | 15
10 | O=C1CCC(Nc2ccc(C3CCN(CC(=O)N4CCN(c5ccc(-c6cc(F)c7c(c6)C(=O)N(C(C(=O)Nc6nccs6)c6ncn8c6CCC8)C7)cc5)CC4)CC3)nc2)C(=O)N1 (stereo not shown) [Compound 11, 2-(6,7-dihydro-5H-pyrrolo[1,2-c]imidazol-1-yl)-2-[6-[4-[4-[2-[4-[5-[(2,6-dioxo-3-piperidyl)amino]-2-pyridyl]-1-piperidyl]acetyl]piperazin-1-yl]phenyl]-4-fluoro-1-oxo-isoindolin-2-yl]-N-thiazol-2-yl-acetamide] | 20 | – | 21
11 | O=C1CC[C@H](Nc2ccc(C3CCN(CC(=O)N4CCC(n5cc(-c6cc(F)c7c(c6)C(=O)N(C(C(=O)Nc6nccs6)c6ncn8c6CCC8)C7)nn5)CC4)CC3)cc2)C(=O)N1 (stereo partly drawn) [Compound 30, 2-(6,7-dihydro-5H-pyrrolo[1,2-c]imidazol-1-yl)-2-(6-(1-(1-(2-(4-(4-(((S)-2,6-dioxopiperidin-3-yl)amino)phenyl)piperidin-1-yl)acetyl)piperidin-4-yl)-1H-1,2,3-triazol-4-yl)-4-fluoro-1-oxoisoindolin-2-yl)-N-(thiazol-2-yl)acetamide] | 15 | – | 35
12 | O=C1CC[C@H](Nc2ccc(C3CCN(CC(=O)N4CCC(c5cnn(-c6cc(F)c7c(c6)C(=O)N(C(C(=O)Nc6nccs6)c6ncn8c6CCC8)C7)c5)CC4)CC3)cc2)C(=O)N1 (stereo partly drawn) [Compound 29, 2-(6,7-dihydro-5H-pyrrolo[1,2-c]imidazol-1-yl)-2-[6-[4-[1-[2-[4-[4-[[(3S)-2,6-dioxo-3-piperidyl]amino]phenyl]-1-piperidyl]acetyl]-4-piperidyl]pyrazol-1-yl]-4-fluoro-1-oxo-isoindolin-2-yl]-N-thiazol-2-yl-acetamide] | 24 | – | 20
